Measurements taken from ChEMBL document CHEMBL1201862, “PubChem BioAssay data set” (2004).
Activity calls are given as the source filed them.

What was measured:
[1] = target: T1, Bcl-2-related protein A1 (Mus musculus, UniProt Q07440); assay: Bfl-1 binding inhibitors, SAR follow-up, biochemical, fluorescence polarization (AID 1070)
T1 sequence (Q07440 whole entry): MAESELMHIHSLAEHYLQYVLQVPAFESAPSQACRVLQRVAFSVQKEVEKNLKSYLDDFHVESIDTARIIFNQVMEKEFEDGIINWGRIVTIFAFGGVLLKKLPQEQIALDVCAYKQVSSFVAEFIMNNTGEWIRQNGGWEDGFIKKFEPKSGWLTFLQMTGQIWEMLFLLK

[2] = target: Glyceraldehyde-3-phosphate dehydrogenase (Homo sapiens, UniProt P04406)
[3] = target: T1, Bcl-2-related protein A1; assay: small-molecule antagonists of Bfl-1/BH3 interaction – biochemical, TR-FRET, mouse Bfl-1, confirmation (AID 621);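 note: TR-FRET binding of GST-Bfl-1 to FITC-labelled Bid peptide via terbium antibody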
[4] = target: G-protein coupled receptor 55 (Homo sapiens, UniProt Q9Y2T6); assay: inhibition of LPI-stimulated GPR55 beta-arrestin translocation – imaging, U2OS, beta-arrestin-GFP, LPI agonist, primary screen (AID 2013); type: functional;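 note: antagonist potency measured as reduced agonist-driven arrestin aggregation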
[5] = M. tuberculosis H37Rv growth inhibitors, H37Rv strain (AID 1626); type: functional
[6] = Luminescence Cell-Based Dose Response HTS to Identify Activators of Luciferase Translation or Activity in H4 […] Cells. [Related pubchem assays: 1829 (Project Summary), 1814 (Primary HTS)]; type: functional
[7] = Luminescence Cell-Based Dose Response to Identify Activators of Luciferase Translation or Activity in H4-C Neuroglioblastoma Cells. [Related pubchem assays: 1829 (Project Summary), 1814 (Primary HTS)]; type: functional
[8] = Luminescence Cell-Based Dose Confirmation to Identify Activators of 5'UTR Stem-Loop Driven Alpha-Synuclein mRNA Translation in H4 Neuroglioblastoma Cells. [Related pubchem assays: 1829 (Project Summary), 1814 (Primary HTS)]; type: functional
[9] = target: Cytochrome P450 2C9 (Homo sapiens, UniProt P11712)
[10] = Luminescence Cell-Based Dose Response to Identify Activators of 5'UTR Stem-Loop Driven Prion Protein mRNA Translation in H4-C Neuroglioblastoma Cells. [Related pubchem assays: 1829 (Project Summary), 1814 (Primary HTS)]; type: functional
[11] = target: T2, Mannose-6-phosphate isomerase (Homo sapiens, UniProt P34949); assay: MPI enzyme activity inhibition – biochemical, fluorescence intensity, coupled assay, primary screen (AID 1209)
T2 sequence (P34949 whole entry): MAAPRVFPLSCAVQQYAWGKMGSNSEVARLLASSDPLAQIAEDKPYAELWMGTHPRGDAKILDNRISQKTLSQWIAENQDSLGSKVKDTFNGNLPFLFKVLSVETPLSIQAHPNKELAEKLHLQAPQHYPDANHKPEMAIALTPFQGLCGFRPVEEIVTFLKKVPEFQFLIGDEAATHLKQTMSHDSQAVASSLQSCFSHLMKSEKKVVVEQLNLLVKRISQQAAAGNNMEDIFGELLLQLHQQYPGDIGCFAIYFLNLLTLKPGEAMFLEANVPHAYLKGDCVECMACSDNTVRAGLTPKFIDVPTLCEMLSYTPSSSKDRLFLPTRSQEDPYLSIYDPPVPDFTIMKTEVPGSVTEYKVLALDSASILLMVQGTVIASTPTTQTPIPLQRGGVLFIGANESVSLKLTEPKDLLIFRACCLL

[12] = target: Large T antigen (Simian virus 40, UniProt P03070); type: functional, Betapolyomavirus macacae;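 note: Confirmatory-stage PubChem screen for compounds that inhibit SV40 T antigen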
[13] = target: T2, Mannose-6-phosphate isomerase; assay: MPI inhibition at elevated mannose 6-phosphate – biochemical, fluorescence intensity, high mannose 6-phosphate, primary screen (AID 1220)

Cytochrome P450 2C9, sequence (P11712 whole entry): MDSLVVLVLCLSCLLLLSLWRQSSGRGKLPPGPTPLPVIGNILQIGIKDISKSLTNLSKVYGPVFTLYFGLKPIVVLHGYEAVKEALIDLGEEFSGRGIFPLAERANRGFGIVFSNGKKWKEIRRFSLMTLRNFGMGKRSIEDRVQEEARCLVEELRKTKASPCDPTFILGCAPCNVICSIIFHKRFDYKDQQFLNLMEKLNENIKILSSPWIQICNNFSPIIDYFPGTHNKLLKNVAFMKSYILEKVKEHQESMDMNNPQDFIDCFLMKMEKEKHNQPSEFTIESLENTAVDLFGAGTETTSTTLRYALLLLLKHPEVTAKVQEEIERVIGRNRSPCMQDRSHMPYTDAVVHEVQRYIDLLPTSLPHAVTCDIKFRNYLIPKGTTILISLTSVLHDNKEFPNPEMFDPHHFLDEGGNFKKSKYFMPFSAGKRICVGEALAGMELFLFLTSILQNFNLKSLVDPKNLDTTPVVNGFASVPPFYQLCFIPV
Large T antigen, sequence (P03070 whole entry): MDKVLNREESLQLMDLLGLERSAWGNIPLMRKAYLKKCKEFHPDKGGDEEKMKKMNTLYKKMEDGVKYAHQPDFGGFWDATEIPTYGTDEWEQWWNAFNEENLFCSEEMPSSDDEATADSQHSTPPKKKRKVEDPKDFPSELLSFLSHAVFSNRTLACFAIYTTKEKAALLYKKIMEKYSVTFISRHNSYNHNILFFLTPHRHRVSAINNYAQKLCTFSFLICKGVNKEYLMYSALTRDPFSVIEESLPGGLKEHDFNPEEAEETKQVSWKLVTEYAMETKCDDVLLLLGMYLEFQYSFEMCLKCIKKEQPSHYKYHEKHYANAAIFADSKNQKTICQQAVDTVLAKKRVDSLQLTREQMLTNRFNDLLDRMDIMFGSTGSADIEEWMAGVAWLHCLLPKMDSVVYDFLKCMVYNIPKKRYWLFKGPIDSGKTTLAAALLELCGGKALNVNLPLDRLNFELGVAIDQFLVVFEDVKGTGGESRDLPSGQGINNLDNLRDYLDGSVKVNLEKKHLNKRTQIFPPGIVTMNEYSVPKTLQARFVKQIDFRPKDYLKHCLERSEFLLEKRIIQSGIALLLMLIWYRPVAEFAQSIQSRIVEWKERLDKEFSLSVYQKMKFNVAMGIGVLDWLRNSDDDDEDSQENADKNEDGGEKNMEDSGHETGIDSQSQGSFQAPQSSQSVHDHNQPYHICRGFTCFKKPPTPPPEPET
Glyceraldehyde-3-phosphate dehydrogenase, sequence (P04406 whole entry): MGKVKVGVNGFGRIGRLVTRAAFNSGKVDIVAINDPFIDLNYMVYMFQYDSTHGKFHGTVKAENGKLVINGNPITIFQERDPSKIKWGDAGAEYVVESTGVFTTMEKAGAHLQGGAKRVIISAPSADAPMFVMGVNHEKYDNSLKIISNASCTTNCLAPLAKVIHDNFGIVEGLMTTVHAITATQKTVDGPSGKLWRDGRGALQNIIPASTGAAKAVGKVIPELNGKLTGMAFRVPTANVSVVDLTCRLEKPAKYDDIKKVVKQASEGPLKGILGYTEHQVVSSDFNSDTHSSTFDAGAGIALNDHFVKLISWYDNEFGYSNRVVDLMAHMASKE
G-protein coupled receptor 55, sequence (Q9Y2T6 whole entry): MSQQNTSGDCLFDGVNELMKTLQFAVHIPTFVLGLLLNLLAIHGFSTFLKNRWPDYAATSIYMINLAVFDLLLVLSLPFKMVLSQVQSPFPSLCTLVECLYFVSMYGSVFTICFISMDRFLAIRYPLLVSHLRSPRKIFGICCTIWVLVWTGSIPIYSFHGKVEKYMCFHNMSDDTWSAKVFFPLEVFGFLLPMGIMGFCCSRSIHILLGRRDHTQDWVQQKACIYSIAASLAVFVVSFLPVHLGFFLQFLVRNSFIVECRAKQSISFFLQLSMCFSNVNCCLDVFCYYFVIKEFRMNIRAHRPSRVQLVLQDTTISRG

In the case of `CC1NC(C)C(C)N(C2=C(Cl)C(=O)N(c3ccc(Cl)c(Cl)c3)C2=O)C1C` (centres undefined), the IC50 [1] is reported as > 100 µM (not active), the IC50 [2] is reported as > 100 µM (not active) and the IC50 [3] is reported as 47 µM (active).
For `Clc1nc2ccccc2cc1-c1nnn(-c2ccccc2)n1`, the IC50 [1] was > 100 µM (not active) and the IC50 [3] was > 100 µM (not active).
For `O=C1N=C(N2CCOCC2)S/C1=C/c1ccc(-c2ccc(F)cc2)o1`, the IC50 [4] was 2.93 µM (active) and the IC50 [5] was > 100 µM (active).
For `Cc1nc2c3cnn(-c4ccc(C)c(C)c4)c3ncn2n1`, the EC50 [6] was < 0.1 µM (active), the EC50 [7] was 0.341 µM (active) and the EC50 [8] was 0.424 µM (active). The AC50 [9] was 20 µM (inconclusive) and the EC50 [10] was 0.298 µM (active).
In the case of `Cc1nnc2n(c1=O)N=C(c1ccc(Cl)cc1)CS2`, the EC50 [6] is reported as < 0.1 µM (inconclusive), the EC50 [7] is reported as 0.249 µM (active) and the EC50 [8] is reported as 0.244 µM (active). For the same compound, the EC50 [10] was 0.355 µM (active).
In the case of `COc1ccc2c(c1)-c1nc(/N=C/c3ccc(O)c(OC)c3)sc1CC2`, the IC50 [11] is reported as > 50 µM (not active), the IC50 [12] is reported as 15.5 µM (active) and the IC50 [13] is reported as > 50 µM (not active).
